Measurements taken from patent US11497733B2, “Combination therapy of HSP90 inhibitors and PD-1 inhibitors for treating cancer” (Synta Pharmaceuticals Corp., priority 2015, dated 2022).
Entries after “also recorded” stand apart in the source; their conditions may differ.

What was measured:
[1] = tested on: MC38 colon carcinoma tumors; test: MC38 colon carcinoma syngeneic mouse tumor model, tumor growth; format: in vivo, C57 BL/6 mice; details: established MC38 tumors; ganetespib 125 mg/kg days 8 and 15; αPD-L1 200 μg days 8, 12, 15; FIG. 1A
Experimental: Such findings support the premise that targeting HSP90 may represent a complementary and therapeutically advantageous approach together with immune checkpoint blockade for augmenting antitumor immune responses.
The HSP90 inhibitor ganetespib potentiates the antitumor efficacy of PD-L1 antibody treatment in syngeneic mouse tumor models. In FIG. 1 (a), C57 BL/6 mice bearing established MC38 colon carcinoma tumors (n=7/group) were treated with 200 μg IgG1 control or anti-PD-L1 antibody (αPD-L1; Sorrento Therapeutics, Inc., San Diego), either alone or in combination with 125 mg/kg ganetespib. Ganetespib was dosed on a weekly schedule (days 8 and 15), αPD-L1 was administered on days 8, 12, and 15. […] In FIG. 1 (b), C57 BL/6 mice bearing established B16 melanoma tumors (n=3/group) were dosed using a similar regimen as in (a).

MC38 tumors = test: Gene expression array (NanoString) of MC38 tumors after a ganetespib dose; format: in vivo, mice
Experimental: Mice with MC38 tumors received a dose of ganetespib. Tumors (3 per time point) were removed from the animals at 4, 24, 48 and 120 hr post dose. RNA was prepared and analyzed for gene expression using NanoString. Expression levels of genes were made by comparing drug treated tumors with vehicle-treated tumors.

HCC827 cells = test: MHC Class I surface expression on HCC827 cells, flow cytometry; format: cell-based; details: overnight incubation, FIG. 7A
Experimental: HCC827 cells were incubated with DMSO, Interferon gamma (IFNγ) or ganetespib and stained with anti MHC Class 1 antibodies and examined by flow cytometry to determine the number of molecules per cell surface.

MC38 cells = test: MHC Class I (H2-K) surface expression on MC38 cells, flow cytometry; format: cell-based, mouse; details: overnight, 100 nM ganetespib (sublethal), FIG. 7B
Experimental: MC38 cells were incubated overnight with media+0.01% DMSO (dashed red line, light blue line), or media with 100 nM ganetespib (dotted red line, dark blue line). Cells were stained with an isotype control (red lines), or antibody to mouse H2-K (blue lines).

MC38 tumor cells = test: Chemokine production by MC38 tumor cells in vitro; format: cell-based, mouse; details: overnight, sublethal ganetespib with 300 U/ml TNFα, FIG. 8
Experimental: (§1) MC38 or CT26 tumor cells were incubated with the indicated concentrations of ganetespib as shown in FIG. 8 in combination with 300 U/ml TNFα overnight and supernatants were collected and assayed for chemokines.

CT26 tumor cells = test: Chemokine production by CT26 tumor cells in vitro; format: cell-based; details: overnight, sublethal ganetespib with 300 U/ml TNFα, FIG. 8
Experimental: as §1

[2] = within 48-120 hr after in vivo treatment, versus vehicle-treated tumors

Structure (SMILES): CC(C)c1cc(-c2nnc(O)n2-c2ccc3c(ccn3C)c2)c(O)cc1O [ganetespib, 3-(2,4-DIHYDROXY-5- ISOPROPYL-PHENYL)-4-(1- METHYL-INDOL-5-YL)-5- HYDROXY-[1,2,4] TRIAZOLE (GANETESPIB)]
- tumor growth suppression / antitumor efficacy [1]: comparable degree of tumor growth suppression to that seen following selective anti-PD-L1 antibody treatment
- influx of immune cells into tumors (gene expression) (MC38 tumors; after a single ganetespib administration, FIG. 6): influx of T cells, B cells and NK cells into tumors
- chemokines in tumor (gene expression) (MC38 tumors; after in vivo treatment, versus vehicle-treated tumors): Increases in a large number of chemokines
- NK cells and CD8 cells in tumor (gene expression) (MC38 tumors; [2]): increased numbers of NK cells and CD8 cells
- Treg cells in tumor (gene expression) (MC38 tumors; [2]): decreased Treg cells
- number of HLA-ABC molecules/cell (HCC827 cells): doubled
- major histocompatibility antigen (MHC Class I, H2-K) expression (MC38 cells): upregulates major histocompatibility antigens, especially MHC Class I
- chemokine production (CCL2, CCL5, CXCL10) (MC38 tumor cells): induces chemokine production; also recorded: provokes production of chemokines by the tumor cells (CCL2, CCL5, CXCL10)
- chemokine production (CCL2, CCL5, CXCL10) (CT26 tumor cells): induces chemokine production; also recorded: provokes production of chemokines by the tumor cells (CCL2, CCL5, CXCL10)
